From patent publication US20260250290A1 (BRISTOL-MYERS SQUIBB COMPANY, priority 2023, published 2026)
Where a name gives a salt, the structure may show the parent alone.

Target: T1, full length SGK1 (Homo sapiens, UniProt O00141)
T1 construct: 125 μM full length SGK1 (Life Technologies Part #PR7358A); purchased Life Technologies PR7358A
T1 sequence (O00141 1-431): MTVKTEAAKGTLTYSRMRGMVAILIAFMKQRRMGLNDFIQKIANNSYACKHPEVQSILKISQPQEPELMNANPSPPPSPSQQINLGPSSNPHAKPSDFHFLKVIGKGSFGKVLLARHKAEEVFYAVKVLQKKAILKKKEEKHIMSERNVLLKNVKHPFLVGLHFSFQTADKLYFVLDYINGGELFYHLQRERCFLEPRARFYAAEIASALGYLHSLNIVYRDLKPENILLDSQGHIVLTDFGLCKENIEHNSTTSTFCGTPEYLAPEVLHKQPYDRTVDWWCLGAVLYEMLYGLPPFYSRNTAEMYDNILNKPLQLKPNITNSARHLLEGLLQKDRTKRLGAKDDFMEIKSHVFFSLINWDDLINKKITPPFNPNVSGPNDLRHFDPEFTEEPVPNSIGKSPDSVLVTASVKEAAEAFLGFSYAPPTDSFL
Assay: SGK1 inhibition Assay A (Caliper LabChip electrophoretic separation of fluorescent peptide substrate and phosphorylated product)
Format: biochemical
Conditions: Assay A; 20 μM ATP, 40 min incubation; read-out: SGK1 IC50

| SMILES | IC50 [nM] |
| --- | --- |
| CC(=O)N1CC=C(c2cc(N3CCC[C@@H](NC(=O)c4ccnc(OCCN5CCN(C)CC5)c4)C3)c3c(N)ncnn23)C1 [Example 713] | 59 |
| CC(=O)N1CC=C(c2cc(N3CCC[C@@H](NC(=O)c4cccc(OC5CN6CCC5CC6)n4)C3)c3c(N)ncnn23)C1 (stereo partly drawn) [Example 734, N-((R)-1-(7-(1-acetyl-2,5-dihydro-1H-pyrrol-3-yl)-4-aminopyrrolo[2,1-f][1,2,4]triazin-5-yl)piperidin-3-yl)-6-(quinuclidin-3-yloxy)picolinamide] | 10 |
| CC(=O)N1CC=C(c2cc(N3CCC[C@@H](NC(=O)c4csc(-c5cccnc5)n4)C3)c3c(N)ncnn23)C1 [Example 450, (R)-N-(1-(7-(1-acetyl-2,5-dihydro-1H-pyrrol-3-yl)-4-aminopyrrolo[2,1-f][1,2,4]triazin-5-yl)piperidin-3-yl)-2-(pyridin-3-yl)thiazole-4-carboxamide] | 53 |
| Cc1nc(C)c(C(=O)N[C@@H]2CCCN(c3cc(-c4ccc(=O)n(CC(C)C)c4)n4ncnc(N)c34)C2)s1 [Example 514, (R)-N-(1-(4-amino-7-(1-isobutyl-6-oxo-1,6-dihydropyridin-3-yl)pyrrolo[2,1-f][1,2,4]triazin-5-yl)piperidin-3-yl)-2,4-dimethylthiazole-5-carboxamide] | 131 |
| COC(=O)N1CC=C(c2cc(N3CCC[C@@H](NC(=O)c4sc5ccccc5c4OC4CCN(C(=O)OC(C)(C)C)CC4)C3)c3c(N)ncnn23)C1 [Example 651, ter-butyl (R)-4-((2-((1-(4-amino-7-(1-(methoxycarbonyl)-2,5-dihydro-1H-pyrrol-3-yl)pyrrolo[2,1-f][1,2,4]triazin-5-yl)piperidin-3-yl)carbamoyl)benzo[b]thiophen-3-yl)oxy)piperidine-1-carboxylate] | 100 |
| COC(=O)N1CC=C(c2cc(N3CCC[C@@H](NC(=O)c4sc5ccc(C#N)cc5c4OC4CCN(C(=O)OC(C)(C)C)CC4)C3)c3c(N)ncnn23)C1 [Example 678, tert-butyl (R)-4-((2-((1-(4-amino-7-(1-(methoxycarbonyl)-2,5-dihydro-1H-pyrrol-3-yl)pyrrolo[2,1-f][1,2,4]triazin-5-yl)piperidin-3-yl)carbamoyl)-5-cyanobenzo[b]thiophen-3-yl)oxy)piperidine-1-carboxylate] | 477 |
| CS(=O)(=O)c1ccc(-c2cc(N3CCC[C@@H](NC(=O)c4ccccc4OCCO)C3)c3c(N)ncnn23)cc1 [Example 59, (R)-N-(1-(4-amino-7-(4-(methylsulfonyl)phenyl)pyrrolo[2,1-f][1,2,4]triazin-5-yl)piperidin-3-yl)-2-(2-hydroxyethoxy) benzamide] | 10 |
| CC(=O)N1CC=C(c2cc(N3CCC[C@@H](NC(=O)C4=NN(c5ccccc5)C(=O)C4)C3)c3c(N)ncnn23)C1 [Example 459, (R)-N-(1-(7-(1-acetyl-2,5-dihydro-1H-pyrrol-3-yl)-4-aminopyrrolo[2,1-f][1,2,4]triazin-5-yl)piperidin-3-yl)-5-oxo-1-phenyl-4,5-dihydro-1H-pyrazole-3-carboxamide] | 392 |
| COC(=O)N1CC=C(c2cc(N3CCC[C@@H](NC(=O)c4cc5cc(F)ccc5[nH]4)C3)c3c(N)ncnn23)C1 [Example 499, methyl (R)-3-(4-amino-5-(3-(5-fluoro-1H-indole-2-carboxamido)piperidin-1-yl)pyrrolo[2,1-f][1,2,4]triazin-7-yl)-2,5-dihydro-1H-pyrrole-1-carboxylate] | 121 |
| CS(=O)(=O)c1ccc(-c2cc(N3CCC[C@@H](NC(=O)c4ccc(F)s4)C3)c3c(N)ncnn23)cc1 [Example 93, (R)-N-(1-(4-amino-7-(4-(methylsulfonyl)phenyl)pyrrolo[2,1-f][1,2,4]triazin-5-yl)piperidin-3-yl)-5-fluorothiophene-2-carboxamide] | 5 |
| COC(=O)N1CC=C(c2cc(N3CCC[C@@H](NC(=O)c4sc(Cl)cc4OCCN4C[C@@H](C)O[C@@H](C)C4)C3)c3c(N)ncnn23)C1 [Example 287, Methyl 3-(4-amino-5-((R)-3-(5-chloro-3-(2-((2S,6R)-2,6-dimethylmorpholino)ethoxy)thiophene-2-carboxamido)piperidin-1-yl)pyrrolo[2,1-f] [1,2,4]triazin-7-yl)-2,5-dihydro-1H-pyrrole-1-carboxylate] | 22 |

Continued by falling IC50, values first:

| IC50 [nM] | SMILES |
| --- | --- |
| 284 | CS(=O)(=O)c1ccc(-c2cc(N3CC[C@@H]4C[C@]4(NC(=O)c4ccc(Cl)s4)C3)c3c(N)ncnn23)cc1 (relative stereo) [Example 165, rel-N-((1R,6R)-3-(4-amino-7-(4-(methylsulfonyl)phenyl)pyrrolo[2,1-f][1,2,4]triazin-5-yl)-3-azabicyclo[4.1.0]heptan-1-yl)-5-chlorothiophene-2-carboxamide, TFA] |
| 37 | Nc1ncnn2c(-c3ccc(Cl)cc3)cc(N3CCC[C@@H](NC(=O)c4ccc(Cl)s4)C3)c12 [Example 235] |
| 36 | CN(C)CCOc1cc(Cl)sc1C(=O)N[C@@H]1CCCN(c2cc(C3=CCN(C(=O)C4CC(F)(F)C4)CC3)n3ncnc(N)c23)C1 [Example 184, (R)-N-(1-(4-amino-7-(1-(3,3-difluorocyclobutane-1-carbonyl)-1,2,3,6-tetrahydropyridin-4-yl)pyrrolo[2,1-f][1,2,4]triazin-5-yl)piperidin-3-yl)-5-chloro-3-(2-(dimethylamino)ethoxy) thiophene-2-carboxamide, 2 TFA] |
| 31 | Nc1ncnn2c(-c3ccc(=O)n(CC(F)F)c3)cc(N3CCC[C@@H](NC(=O)c4sc(C(F)F)cc4N4CC5(COC5)C4)C3)c12 [Example 316, (R)-N-(1-(4-amino-7-(1-(2,2-difluoroethyl)-6-oxo-1,6-dihydropyridin-3-yl)pyrrolo[2,1-f][1,2,4]triazin-5-yl)piperidin-3-yl)-5-(difluoromethyl)-3-(2-oxa-6-azaspiro[3.3]heptan-6-yl)thiophene-2-carboxamide] |
| 15 | Nc1ncnn2c(C3=CCN(C(=O)c4nccs4)C3)cc(N3CCC[C@@H](NC(=O)c4ccc(Cl)s4)C3)c12 [Example 880, (R)—N-(1-(4-amino-7-(1-(thiazole-2-carbonyl)-2,5-dihydro-1H-pyrrol-3-yl)pyrrolo[2,1-f][1,2,4]triazin-5-yl)piperidin-3-yl)-5-chlorothiophene-2-carboxamide] |
| 12 | Nc1ncnn2c(C3=CCN(C(=O)c4ccno4)C3)cc(N3CCC[C@@H](NC(=O)c4ccc(Cl)s4)C3)c12 [Example 899, (R)-N-(1-(4-amino-7-(1-(isoxazole-5-carbony1)-2,5-dihydro-1H-pyrrol-3-y1)pyrrolo[2,1-f][1,2,4]triazin-5-y1)piperidin-3-y1)-5-chlorothiophene-2-carboxamide] |
| 11 | Cc1cc(-c2cc(N3CCC[C@@H](NC(=O)c4sc(Cl)cc4OCC(=O)N4CCCC4)C3)c3c(N)ncnn23)cnc1C#N [Example 421, (R)-N-(1-(4-amino-7-(6-cyano-5-methylpyridin-3-yl)pyrrolo[2,1-f][1,2,4]triazin-5-yl)piperidin-3-yl)-5-chloro-3-(2-oxo-2-(pyrrolidin-1-yl)ethoxy) thiophene-2-carboxamide] |
| 9 | Cn1nccc1-c1cc(N2CCC[C@@H](NC(=O)c3ccc(Cl)s3)C2)c2c(N)ncnn12 [Example 210, (R)-N-(1-(4-amino-7-(1-methyl-1H-pyrazol-5-yl)pyrrolo[2,1-f][1,2,4]triazin-5-yl)piperidin-3-yl)-5-chlorothiophene-2-carboxamide, TFA] |
